Source: US11046710B2, “Sulfonamide compounds” (DAIICHI SANKYO COMPANY, LIMITED, priority 2016, dated 2021)
pIC50: −log10 of the molar value.

Tested on: plasma ALP (80-90% containing TNAP)
Assay: Inhibitory test of plasma TNAP activity in B6 mouse
Format: in vivo
Settings: oral, dose 0.3 mg/kg, average 0-6 h after administration
Procedure: After blood sampling from the tail vein using a heparin-treated hematocrit capillary tube (EM Meister Hematocrit Capillary Tube, AS ONE Corp.) (as the sample before compound administration), each test compound suspended in a 0.5% methylcellulose solution (powder purchased from Wako Pure Chemical Industries, Ltd. was adjusted to 0.5% with Otsuka distilled water) was administered orally to the mouse. 1, 2, 4, 6, and 24 hours after the administration, blood was collected from the tail vein using a heparin-treated hematocrit capillary tube to obtain a plasma sample. The plasma sample was added to an assay buffer (1 M Tris, 1 M MgCl2, 20 mM ZnCl2, and water, pH 7.5), and the mixture was left standing for 5 minutes. Then, the absorbance at 405 nm was measured and used as a blank. The substrate pNPP was added to the plasma sample and incubated at room temperature for 180 minutes. Then, the absorbance (ABS: 405 nm) was measured using a microplate reader (model plus 384, Molecular Devices, LLC), and the concentration of produced p-nitrophenol was calculated. The blank was subtracted from all measurement values to calculate TNAP activity at each time point with the TNAP activity of the sample before compound administration defined as 100%. The pharmaceutical effect of the test compound was evaluated by the average inhibition of plasma ALP (80-90% containing TNAP) activity for 6 hours from 0 hour to 6 hour after the administration of the test compound. It was calculated according to the following expression: 100−((plasma ALP activity at 0 hr+plasma ALP activity at 1 hr)*½+(plasma ALP activity at 1 hr+plasma ALP activity at 2 hr)*½+(plasma ALP activity at 2 hr+plasma ALP activity at 4 hr)*2/2+(plasma ALP activity at 4 hr+plasma ALP activity at 6 hr)*2/2)/6 The results are shown in Table 2.

SMILES	Plasma ALP inhibition (6 h ave. inhibition %) [%]
O=C1c2cc([N-]S(=O)(=O)c3cc(Cl)ccc3OC(F)(F)F)cnc2OC[C@H]2C[C@H](O)CN12.[K+] [Example 33, Potassium {[5-chloro-2-(trifluoromethoxy)phenyl]sulfonyl}[(8S,9aR)-8-hydroxy-5-oxo-8,9,9a,10-tetrahydro-5H,7H-pyrido[3,2-f]pyrrolo[2,1-c][1,4]oxazepin-3-yl]azanide]	59.0
O=C1c2cc([N-]S(=O)(=O)c3cc(Cl)ccc3OC(F)(F)F)cnc2OC[C@H]2[C@@H](O)CCN12.[K+] [Example 43, Potassium {[5-chloro-2-(trifluoromethoxy)phenyl]sulfonyl}[(9S,9aS)-9-hydroxy-5-oxo-8,9,9a,10-tetrahydro-5H,7H-pyrido[3,2-f]pyrrolo[2,1-c][1,4]oxazepin-3-yl]azanide]	65.5
O=C1c2cc([N-]S(=O)(=O)c3cc(Cl)ccc3OC(F)(F)F)cnc2OC[C@H]2C[C@@H](O)CN12.[K+] [Example 38, Potassium {[5-chloro-2-(trifluoromethoxy)phenyl]sulfonyl}[(8R,9aR)-8-hydroxy-5-oxo-8,9,9a,10-tetrahydro-5H,7H-pyrido[3,2-f]pyrrolo[2,1-c][1,4]oxazepin-3-yl]azanide]	65.5

Same assay, conditions: oral, dose 1 mg/kg, average 0-6 h after administration

SMILES	Plasma ALP inhibition (6 h ave. inhibition %) [%]
CCOc1ccc(F)cc1S(=O)(=O)[N-]c1cnc2c(c1)CN1C(=O)COC[C@H]1CO2.[K+] [Example 62, Potassium [(2-ethoxy-5-fluorophenyl)sulfonyl][(10aS)-7-oxo-7,8,10a,11-tetrahydro-5H,10H-[1,4]oxazino[3,4-c]pyrido[3,2-f][1,4]oxazepin-3-yl]azanide]	76.0
COC(=O)N[C@@H]1C[C@@H]2COc3ncc([N-]S(=O)(=O)c4cc(Cl)ccc4OC)cc3C(=O)N2C1.[K+] [Example 51, Potassium [(5-chloro-2-methoxyphenyl)sulfonyl]{(8R,9aR)-8-[(methoxycarbonyl)amino]-5-oxo-8,9,9a,10-tetrahydro-5H, 7H-pyrido[3,2-f]pyrrolo[2,1-c][1,4]oxazepin-3-yl}azanide]	59.7
COc1ccc(Cl)cc1S(=O)(=O)[N-]c1cnc2c(c1)CN1C(=O)[C@@H](O)C[C@H]1CO2.[K+] [Example 55, Potassium [(5-chloro-2-methoxyphenyl)sulfonyl][(8S,9aS)-8-hydroxy-7-oxo-8,9,9a,10-tetrahydro-5H,7H-pyrido[3,2-f]pyrrolo[2,1-c][1,4]oxazepin-3-yl]azanide]	65.7
CCc1nnc2n1CCOc1ncc([N-]S(=O)(=O)c3cc(Cl)ccc3OC)cc1-2.[K+] [Example 4, Potassium [(5-chloro-2-methoxyphenyl)sulfonyl](3-ethyl-5,6-dihydropyrido[3,2-f][1,2,4]triazolo[4,3-d][1,4]oxazepin-10-yl)azanide]	40.7
COc1ccc(Cl)cc1S(=O)(=O)[N-]c1cnc2c(c1)-c1nnc(C)n1CCO2.[K+] [Example 2, Potassium [(5-chloro-2-methoxyphenyl)sulfonyl](3-methyl-5,6-dihydropyrido[3,2-f][1,2,4]triazolo[4,3-d][1,4]oxazepin-10-yl)azanide]	34.4

Same assay, conditions: oral, dose 3 mg/kg, average 0-6 h after administration

SMILES	Plasma ALP inhibition (6 h ave. inhibition %) [%]
COc1ncc(Cl)cc1S(=O)(=O)[N-]c1cnc2c(c1)-c1ccnn1[C@@H](C)CO2.[K+] [Example 22, potassium [(5-chloro-2-methoxypyridin-3-yl)sulfonyl][(5S)-5-methyl-5,6-dihydropyrazolo[1,5-d]pyrido[3,2-f][1,4]oxazepin-10-yl]azanide]	28.4
COc1ccc(Cl)cc1S(=O)(=O)[N-]c1cnc2c(c1)-c1ccnn1CCO2.[K+] [Example 8, Potassium [(5-chloro-2-methoxyphenyl)sulfonyl](5,6-dihydropyrazolo[1,5-d]pyrido[3,2-f][1,4]oxazepin-10-yl)azanide]	29.4
CCOc1ncc(F)cc1S(=O)(=O)[N-]c1cnc2c(c1)-c1ccnn1CCO2.[K+] [Example 15, Potassium 5,6-dihydropyrazolo[1,5-d]pyrido[3,2-f][1,4]oxazepin-10-yl[(2-ethoxy-5-fluoropyridin-3-yl)sulfonyl]azanide]	61.4
CCOc1ncc(F)cc1S(=O)(=O)[N-]c1cnc2c(c1)-c1ccnn1[C@@H](C)CO2.[K+] [Example 25, potassium [(2-ethoxy-5-fluoropyridin-3-yl)sulfonyl][(5S)-5-methyl-5,6-dihydropyrazolo[1,5-d]pyrido[3,2-f][1,4]oxazepin-10-yl]azanide]	55.5
CCOc1ccc(F)cc1S(=O)(=O)[N-]c1cnc2c(c1)-c1ccnn1CCO2.[K+] [Example 10, Potassium 5,6-dihydropyrazolo[1,5-d]pyrido[3,2-f][1,4]oxazepin-10-yl[(2-ethoxy-5-fluorophenyl)sulfonyl]azanide]	43.3
CCOc1ccc(F)cc1S(=O)(=O)[N-]c1cnc2c(c1)-c1ccnn1[C@@H](C)CO2.[K+] [Example 19, Potassium [(2-ethoxy-5-fluorophenyl)sulfonyl][(5S)-5-methyl-5,6-dihydropyrazolo[1,5-d]pyrido[3,2-f][1,4]oxazepin-10-yl]azanide]	27.5

Biological target: human TNAP (Homo sapiens (Human), UniProt P05186)
Assay: Inhibitory test of TNAP activity (pNPP substrate, p-nitrophenol production)
Format: biochemical
Settings: human TNAP from transfected COS1 culture supernatant, 60 minutes at room temperature
Procedure: COS1 cells (DS Pharma Biomedical Co., Ltd.) were transfected with human TNAP (OriGene Technologies, Inc.) using Lipofectamine LTX & Plus reagent (Invitrogen Corp.). On the next day, the medium was replaced with a fresh medium, and the cells were cultured in an incubator for 3 days. After 3 days, the culture supernatant was collected and concentrated by centrifugation at 5000 G for 30 minutes using Amicon 14, 10^4 cut (Merck Millipore). The concentrated culture supernatant was dialyzed against 5 L of 50 mM Tris/200 mM NaCl/1 mM MgCl2/20 μM ZnCl2 twice and used as an enzyme source (enzyme solution). The substrate pNPP (ProteoChem Inc.) was adjusted to 3.1 mM with Milli-Q water, and a solution of each test compound dissolved in dimethyl sulfoxide (DMSO; Wako Pure Chemical Industries, Ltd.) by 6 serial dilutions at a 5-fold common ratio from 100 μM, or DMSO was added thereto at a final concentration of 1% by volume. The enzyme solution adjusted to 2 μg/mL with an assay buffer (200 mM Tris/2 mM MgCl2/0.04 mM ZnCl2/0.01% Tween 20) was added in the same amount of the substrate solution and incubated at room temperature for 60 minutes. Then, the absorbance (ABS: 405 nm) was measured using a microplate reader (model plus 384, Molecular Devices, LLC), and the concentration of produced p-nitrophenol was calculated.

Sequence of human TNAP (P05186 18-524): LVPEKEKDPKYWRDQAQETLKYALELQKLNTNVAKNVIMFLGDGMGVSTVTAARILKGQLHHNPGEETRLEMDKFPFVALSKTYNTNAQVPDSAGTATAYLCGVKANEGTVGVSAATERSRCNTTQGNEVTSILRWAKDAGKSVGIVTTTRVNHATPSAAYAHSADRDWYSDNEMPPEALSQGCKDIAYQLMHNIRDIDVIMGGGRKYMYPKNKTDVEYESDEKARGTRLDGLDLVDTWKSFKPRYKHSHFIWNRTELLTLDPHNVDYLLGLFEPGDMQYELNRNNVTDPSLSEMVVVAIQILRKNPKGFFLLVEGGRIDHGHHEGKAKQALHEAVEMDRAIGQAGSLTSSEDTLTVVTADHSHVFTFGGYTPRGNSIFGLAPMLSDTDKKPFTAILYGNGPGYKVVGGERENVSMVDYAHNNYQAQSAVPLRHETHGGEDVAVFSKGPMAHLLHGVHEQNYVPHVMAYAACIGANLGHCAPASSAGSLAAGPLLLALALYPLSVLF

SMILES	pIC50
COc1ccc(F)cc1S(=O)(=O)Nc1cnc2c(c1)C(=O)N1C[C@H](O)C[C@@H]1CO2 [Example 36, 5-fluoro-N-[(8R,9aR)-8-hydroxy-5-oxo-8,9,9a,10-tetrahydro-5H,7H-pyrido[3,2-f]pyrrolo[2,1-c][1,4]oxazepin-3-yl]-2-methoxybenzenesulfonamide]	8.82
COc1ccc(Cl)cc1S(=O)(=O)Nc1cnc2c(c1)CN1C(=O)CC[C@H]1CO2 [Example 52, 5-chloro-2-methoxy-N-[(9aS)-7-oxo-8,9,9a,10-tetrahydro-5H,7H-pyrido[3,2-f]pyrrolo[2,1-c][1,4]oxazepin-3-yl]benzenesulfonamide]	8.66
O=C1c2cc(NS(=O)(=O)c3cc(F)ccc3OC(F)(F)F)cnc2OC[C@H]2C[C@@H](O)CN12 [Example 39, 5-fluoro-N-[(8R,9aR)-8-hydroxy-5-oxo-8,9,9a,10-tetrahydro-5H,7H-pyrido[3,2-f]pyrrolo[2,1-c][1,4]oxazepin-3-yl]-2-(trifluoromethoxy)benzenesulfonamide]	8.62
COc1ccc(Cl)cc1S(=O)(=O)Nc1cnc2c(c1)-c1nnc(C)n1CCO2 [Example 1, 5-chloro-2-methoxy-N-(3-methyl-5,6-dihydropyrido[3,2-f][1,2,4]triazolo[4,3-d][1,4]oxazepin-10-yl)benzenesulfonamide]	8.59
CC(=O)O[C@H]1C[C@@H]2COc3ncc(NS(=O)(=O)c4cc(Cl)ccc4OC(F)(F)F)cc3C(=O)N2C1 [Example 47, (8S,9aR)-3-({[5-chloro-2-(trifluoromethoxy)phenyl]sulfonyl}amino)-5-oxo-8,9,9a,10-tetrahydro-5H,7H-pyrido[3,2-f]pyrrolo[2,1-c][1,4]oxazepin-8-yl acetate]	8.82
COc1ccc(F)cc1S(=O)(=O)Nc1cnc2c(c1)C(=O)N1C[C@@H](O)C[C@@H]1CO2 [Example 31, 5-fluoro-N-[(8S,9aR)-8-hydroxy-5-oxo-8,9,9a,10-tetrahydro-5H,7H-pyrido[3,2-f]pyrrolo[2,1-c][1,4]oxazepin-3-yl]-2-methoxybenzenesulfonamide]	8.92
CCOc1ccc(F)cc1S(=O)(=O)Nc1cnc2c(c1)-c1ccnn1CCO2 [Example 9, N-(5,6-dihydropyrazolo[1,5-d]pyrido[3,2-f][1,4]oxazepin-10-yl)-2-ethoxy-5-fluorobenzenesulfonamide]	8.47
